Test [1] relates to PANC-1 cells. Nature of the test: In vitro antiproliferative assay (MTS), PANC-1. The class given is cell-based, human. The note with it: 5 µM, 4 day. On the procedure:
(§1) Cells were plated at a density of 3000 (THLE-2 and PC-3) and 1000 (PANC-1, SUIT-2 and FEMX) cells per well (on the basis of their growth rate) in 200 µl of medium in a 96-well plate. Medium was changed daily, and after four days, the assay was read using a MTS kit (Promega) according to the instructions of the manufacturer. Graphs display average of percent growth with standard deviation (n = 8).

The subject of test [2] is GLI1 mRNA in SUIT-2 cells. Nature of the test: Real time PCR of GLI1 mRNA in SUIT-2. Format: cell-based, human. The note with it: 48 hrs. On the procedure:
(§2) Cells were lysed for RNA extraction after 48 or 72 hours of treatment. Total RNA from cultured cells or tumor tissue was isolated using the GeneElute miniprep kit (Sigma-Aldritch) following the manufacturer^'s instructions. cDNA was synthesized from the isolated mRNA using the Retroscript kit (Ambion), and real-time PCR was carried out using the SYBR Green PCR master mix (Stratagene) according to the manufacturer^'s instructions with an Mx3000P cycler (Stratagene). The relative concentrations of cDNA present in each sample were calculated by the MxPro software (Stratagene), normalized for GAPDH (mRNA from cells) or GUS (mRNA from tumors). For real time PCR primer sequences see Table 6. For the tumor tissue real time PCR, previously described human and mouse specific primers against GUSB, PTCH1 and GLI1were used.
On the technique in general: Real-time PCR tracks product formation cycle by cycle.

In test [3] the test system is Gli1 mRNA expression in Sufu−/− MEF. Nature of the test: Real time PCR of Gli1 mRNA in Sufu−/− MEF. The class given is cell-based, mouse. To be noted: 72 hours. On the procedure: as §2
Test [4] concerns GLI1 mRNA in PANC-1 cells. Nature of the test: Real time PCR of GLI1 mRNA in PANC-1. Format: cell-based, human. The note with it: 5 µM, 48 hrs. As for the experimental part:
as §2

The subject of test [5] is Gli1 protein in Sufu−/− MEF. Nature of the test: Gli1 immunostaining of Sufu−/− MEF. The class given is cell-based, mouse. To be noted: 20 µM, 48 hours.
Test [6] relates to Hh pathway in Shh-L2 cells. Nature of the test: Hh reporter assay in Shh-L2 cells. Format: cell-based, mouse. To be noted: Mus musculus; pathway inhibition in Shh induced Shh-L2 cells, 48 hours treatment. As for the experimental part:
Shh-L2 cells were used as a Hh reporter cell line as described previously. Hh signaling was induced by Shh conditioned medium, 200 nM SAG (AH-Diagnostics) and ActOXS (a combination of 5 µM Hydroxycholesterol 20-alfa and 5 µM Hydroxycholesterol 22S (Sigma-Aldrich)). For Shh conditioned medium, Shh-PANC-1 cells were grown to confluence and switched to fresh medium. Shh conditioned medium was harvested after 48 hours, and was diluted to 50% in fresh DMEM before use. The clonal Shh-PANC-1 cell line was generated by stably transducing PANC-1 cells with virus containing medium from HEK293T cells that were transfected using a Virapower Lentiviral expression kit (Invitrogen). The vector was produced by removing GFP from a pLenti 6.2-vector, and inserting the mouse Shh cDNA sequence.
The calculations were performed with an online calculator using the formula: a exp (−bx) + c at the website; http://www.changbioscience.com/stat/ec50.html

In test [7] the test system is GLI1 mRNA in PC-3 cells. Nature of the test: Real time PCR of GLI1 mRNA in PC-3. The class given is cell-based, human. The note with it: 48 hrs. On the procedure:
as §2

The subject of test [8] is PANC-1, SUIT-2, PC-3 and FEMX cells. Nature of the test: In vitro antiproliferative assay (MTS), tumor cell lines. The class given is cell-based, human. To be noted: 10 µM, 4 day exposure; across PANC-1, SUIT-2, PC-3 and FEMX. On the procedure:
as §1

This is an account of results in article PMC3115942 (PLoS ONE, 2011).

For orientation: IC50 means the concentration that inhibits the measured activity by half.

Each structure is given as a SMILES string.

As for `CS(=O)(=O)c1ccc(C(=O)Nc2ccc(Cl)c(-c3ccccn3)c2)c(Cl)c1` [GDC-0449, reference compound], the “growth (MTS), PANC-1” value in test [1] is reported as “reduced growth”. Further, in test [2], the “GLI1 mRNA levels, SUIT-2” value is reported as “reduced GLI1 mRNA levels”. For the same compound, the “inhibitory effect on Hh signaling downstream of Smo in Sufu−/− MEFs” value in test [3] is “little inhibitory effect”. For the same compound, in test [4], the “GLI1 mRNA levels, PANC-1” value was “without reducing GLI1 mRNA levels”. The “total level of Gli1 in the cells” value in test [5] is recorded as “reduced Gli1 levels in the cells, but to a lesser extent than MS-0022”. Also, the IC50 in test [6] is 30 nM. Besides, in test [7], the “GLI1 mRNA levels, PC-3” value is recorded as “reduced GLI1 mRNA levels”. The “growth reduction (MTS)” value in test [8] is listed as ≤ 30%.
Consider `CC1=C2C[C@H]3[C@@H](CC=C4C[C@@H](O)CC[C@@]43C)[C@@H]2CC[C@]12O[C@@H]1C[C@H](C)CN[C@H]1[C@H]2C` [cyclopamine, reference compound], for which the “GLI1 mRNA levels, SUIT-2” value in test [2] was “reduced GLI1 mRNA levels”. For the same compound, in test [3], the “inhibitory effect on Hh signaling downstream of Smo in Sufu−/− MEFs” value is “little inhibitory effect”. Further, in test [5], the “total level of Gli1 in the cells” value is reported as “no significant effect”. Moreover, in test [6], the IC50 is 210 nM.
